From patent publication US11858879B2, “PARG inhibitors and method of use thereof” (City of Hope, priority 2017, dated 2024) come the findings set out here.

The target of the assay is T1, PARG (Homo sapiens, UniProt Q86W56).
T1 construct: Recombinant full length PARG protein is generated from Sf9 insect cells; made in house; host or cells: Sf9 insect cells
The assay can be described thus: PAR digestion assay (dot blotting with anti-PAR antibody). The assay is classed as biochemical. As to conditions: PARG incubated with PAR for 20 min at room temperature with or without inhibitors, dot blot with anti-PAR antibody. Here is the method:
Development of potent and cell-permeant PARG inhibitors via multi-step virtual screening and hierarchical selection. Forty candidates from National Cancer Institute (NCI) were selected to examine the efficacy of PARG inhibition by dot blot assay. PARG was incubated with PAR for 20 min at room temperature with or without inhibitors. PAR-digestion results were analyzed using dot blotting with anti-PAR antibody. […] PC and NC mean positive control (PAR only) and negative control (no inhibitor), respectively. IC50 value of compound 34 was measured by dot blotting with anti-PAR antibody in a dose course of compound 34.
PAR digestion assay: Recombinant PARG protein were incubated with PAR (10 μM, calculated as the ADP-ribose unit) and DMSO (Negative control, NC) or small molecules for 20 minutes at room temperature. Positive control (PC) only contains PAR in PBS. Samples were spotted onto a nitrocellulose membrane. The membrane was blocked with TBST buffer (0.15 M NaCl, 0.01 M Tris-HCl at pH 7.4, 0.1% Tween 20) supplemented with 5% milk and extensively washed with TBST. The membrane was examined by anti-PAR antibody.
Recombinant full length PARG protein is generated from Sf9 insect cells. Recombinant PAR is purified from a biochemical assay using PARP1. PARG is incubated with PAR in the presence of DMSO (Negative control, NC) or small chemical compounds for 20 minutes at room temperature. […]

T1 sequence (Q86W56 whole entry): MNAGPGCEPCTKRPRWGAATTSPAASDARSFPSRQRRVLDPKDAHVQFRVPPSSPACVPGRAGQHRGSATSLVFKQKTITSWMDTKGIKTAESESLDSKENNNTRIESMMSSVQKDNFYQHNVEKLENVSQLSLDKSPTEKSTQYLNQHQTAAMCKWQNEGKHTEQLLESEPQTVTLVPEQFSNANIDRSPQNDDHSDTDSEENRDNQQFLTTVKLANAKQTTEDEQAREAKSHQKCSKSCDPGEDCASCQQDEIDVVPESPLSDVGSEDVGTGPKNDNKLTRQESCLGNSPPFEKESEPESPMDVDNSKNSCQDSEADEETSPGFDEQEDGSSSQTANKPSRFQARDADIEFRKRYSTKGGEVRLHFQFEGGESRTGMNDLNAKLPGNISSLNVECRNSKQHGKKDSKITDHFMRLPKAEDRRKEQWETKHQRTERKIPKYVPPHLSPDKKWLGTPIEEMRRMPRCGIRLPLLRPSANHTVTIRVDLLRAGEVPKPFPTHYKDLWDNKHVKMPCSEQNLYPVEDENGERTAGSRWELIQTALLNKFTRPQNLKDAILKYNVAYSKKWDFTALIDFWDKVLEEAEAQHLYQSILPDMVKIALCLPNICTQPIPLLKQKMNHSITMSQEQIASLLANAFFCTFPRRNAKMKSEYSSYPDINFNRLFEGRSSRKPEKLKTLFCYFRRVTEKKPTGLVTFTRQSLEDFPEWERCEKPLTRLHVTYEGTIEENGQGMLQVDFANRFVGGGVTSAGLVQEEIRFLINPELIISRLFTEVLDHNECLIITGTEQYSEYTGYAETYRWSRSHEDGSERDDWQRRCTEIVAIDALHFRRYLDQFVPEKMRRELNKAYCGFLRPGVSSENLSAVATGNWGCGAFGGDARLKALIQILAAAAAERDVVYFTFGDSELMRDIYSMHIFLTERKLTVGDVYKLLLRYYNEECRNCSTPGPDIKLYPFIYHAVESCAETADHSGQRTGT

With `Cc1ccc(S/N=C/c2c(O)ccc3ccccc23)cc1` [Compound 34], the “inhibitory activity for PARG” value is given as “inhibitory activity”. Further, where the note is “listed as #34”, the “inhibitory activity for PARG” value is reported as “good inhibitory activity”.
